Data from paper PMC9866541, “Flavonoid Derivatives as New Potent Inhibitors of Cysteine Proteases: An Important Step toward the Design of New Compounds for the Treatment of Leishmaniasis” (Microorganisms, 2023).
Read-outs that look alike come from different tables or passages of the source.

What was measured:
rCPB2.8 [1] = molecular target: T1, rCPB2.8 (Leishmania mexicana, UniProt P36400); assay: Determination of IC50 on rCPB2.8 (Z-FR-AMC); format: biochemical
T1 construct: recombinant enzymes (r) lacking the C-terminal region
Protocol: Cysteine proteases rCPB2.8, rCPB3, and rH84Y were assayed in 100 mM sodium acetate buffer containing 5 mM EDTA, 100 mM NaCl, 0.01% Triton X-100, and 20% glycerol, at pH 5.5. The enzymes were pre-incubated in the presence of 5 mM DTT for 5 min at 37 °C in a 1 mL final volume with constant stirring. Enzyme activities were monitored using fluorogenic probe Z-FR-AMC (9.25 µM final concentration), and the fluorescence was monitored by spectrofluorometry using fluorometer F2700 (Hitachi, Tokyo, Japan) set to λEx = 360 nm and λEm = 480 nm. The IC50 evaluation was performed using a progressive increase in the concentration of the compounds; the IC50 values were calculated using nonlinear regression, and the data were analysed by Grafit 5.0.13 software using Equation (1). (1) y=100%/1+(x/IC50)^S.

rH84Y [2] = format: biochemical, Leishmania mexicana; conditions: ratio of IC50 values
[3] = tested on: Promastigote forms of L. amazonensis; assay: Antipromastigote assay (MTT); format: cell-based, Leishmania amazonensis; conditions: for SI (selectivity index): GL50 in NIH/3T3 cells / IC50 in extracellular promastigotes; for IC50: Leishmania amazonensis, 72 h, read-out: Promastigote IC50
Protocol: A standard strain of Leishmania (Leishmania amazonensis) (IFLA/BR/1967/PH8) was used for the evaluation of in vitro antileishmanial activity. The promastigote forms were grown in Schneider’s insect medium (Sigma-Aldrich®, SP/Brazil) supplemented with 20% foetal bovine serum (Sigma-Aldrich®, SP/Brazil), 10,000 U/mL penicillin, and 10 mg/mL streptomycin (Sigma-Aldrich®, SP/Brazil).
Promastigote forms of L. amazonensis in the log growth phase (10^e6 parasites/mL) were added to 96-well plates and incubated in sextuplicate with the test samples (0.25–10.0 µg/mL). The microplates were incubated at 26 °C for 72 h. Cell viability was assessed by adding 5 mg/mL of MTT ([3-(4,5-dimethylthiazol-2-yl)-2,5-diphenyltetrazolium bromide] (Sigma-Aldrich® SP/Brazil). Results were expressed as the half-maximal inhibitory concentration (IC50) calculated by a nonlinear dose–response regression curve using the statistical program GraphPad PRISM 5.0. Pentamidine (Sigma-Aldrich ® SP/Brazil; 0.25–10 µg/mL) was used as a positive control, and pure Schneider culture medium was used as a negative control.

NIH/3T3 fibroblasts = assay: Cytotoxicity on mammalian cells (sulphorhodamine B); format: cell-based; conditions: for NIH/3T3 Cells GL50: 48 h, concentration that inhibited cell growth by 50%
Protocol: The cytotoxic effect of the test samples was evaluated on NIH/3T3 fibroblasts, obtained from the Rio de Janeiro Cell Bank (Brazil). Cells were seeded in 96-well plates ([…]). After 24 h of fixation, cells were incubated for 48 h with test samples at 0.25–250 µg/mL, in triplicate. […] Doxorubicin (0.025–25 µg/mL was used as a positive control. Cells were fixed by adding 20% trichloroacetic acid and were subsequently stained with sulphorhodamine B (0.1%) diluted in acetic acid after 48 h of exposure. Absorbance values were read on the PT-READER microplate instrument (Thermoplate®), and growth percentages were calculated according to procedures in the literature. Cytotoxicity activity was expressed as the concentration of drug that inhibited cell growth by 50% (GL50), and growth was determined by nonlinear regression using Origin 6.0 software (OriginLab). The statistical significance was analysed using an unpaired Student’s t-test or a one-way analysis of variance. A p-value < 0.05 was considered statistically relevant. In addition, the SI was calculated using the ratio between cytotoxicity in NHI-3T3 cells (GL50) and activity in the parasite forms (IC50).

rCPB2.8 [4] = molecular target: T1, rCPB2.8; assay: Screening of inhibitory activity on rCPB2.8 (Z-FR-MCA hydrolysis); format: biochemical; conditions: for inhibition at 1 µM / inhibition at 5 µM: read-out: Inhibition of rCPB2.8 enzymatic activity
Protocol: The screening assays for the inhibitory activity of the compounds in the rCPB2.8, rCPB3, and rH84Y enzymes were performed using 100 mM sodium acetate buffer containing 5 mM EDTA, 100 mM NaCl, 0.01% Triton X-100, and 20% glycerol, at pH 5.5. Enzyme aliquots were pre-incubated with 5 mM DTT for 5 min at 37 °C. After checking the initial rate of the reaction corresponding to the control, the enzymatic rate was measured at two concentrations of compounds, 1 µM and 5 µM. Enzyme activity was monitored by hydrolysis of the substrate Z-FR-MCA by measuring the fluorescence at λEx = 360 nm and λEm = 480 nm on a Hitachi F2700 spectrofluorometer, obtaining the rate values in UAF/min (arbitrary fluorescence units by minute).

rCPB2.8 [5] = molecular target: T1, rCPB2.8; assay: Enzyme kinetics and mechanism of inhibition of rCPB2.8; format: biochemical; on mechanism: key: NCPC: non-competitive inhibition with positive cooperativity; SLNC: simple linear non-competitive inhibition
Protocol: (§1) Studies of cysteine proteases rCPB2.8, rCPB3, and rH84Y inhibition kinetics were performed in different concentrations of Z-FR-AMC in the presence and absence of compounds using 100 mM sodium acetate buffer containing 5 mM EDTA, 100 mM NaCl, 0.01% Triton X-100, and 20% glycerol, at pH 5.5. Aliquots of the enzymes were pre-incubated with 5 mM DTT for 5 min at 37 °C. For every kinetic measurement, the compounds were pre-incubated with each enzyme for 10 min before adding the substrate. All kinetic assays were performed in duplicate. Inhibition constants were determined using different equations, depending on the inhibition mechanism. The assumed KM values of rCPB2.8, rCPB3, and rH84Y for Z-FR-AMC were 3.23 µM, 2.99 µM, and 2.80 µM, respectively. The data of the activity rate and substrate concentration generated rectangular hyperbolic profiles that were linearised using the Lineweaver–Burk double-reciprocal plot. The replot profiles of the slope vs. inhibitor and intercept vs. inhibitor provided Ki and αKi parameters, respectively. If the replots present a parabolic profile, the system involves the participation of a second molecule of the compound, which can bind the enzyme complexed to the first compound (EI), forming IEI, and bind to the ESI complex, forming IESI. Linearisation is required, generating the 1/Kslope vs. inhibitor and 1/Kintercept vs. inhibitor replots, according to Equations (2) and (3). (2) 1/Kslope=1/Ki+[I]/βKi2, (3) 1/Kintercept=1/αKi+[I]/αγKi2, where Ki is the inhibitory constant, [I] is the concentration of inhibitor, α is the factor of formation of the ESI complex (enzyme–substrate–inhibitor complex), β is the factor of formation of the IEI complex (inhibitor–enzyme–inhibitor complex), and γ is the factor of formation of the IESI complex (inhibitor–enzyme–substrate–inhibitor complex) according to the general mechanism (Figure 8). Furthermore, β and γ measure the cooperativity between the binding of the first and second inhibitor molecules to form IEI and IESI, respectively.

rCPB3 = rCPB3 (Leishmania mexicana, UniProt P36400, D186N/D189S/N185D, form not given); assay: Enzyme kinetics and mechanism of inhibition of rCPB3; format: biochemical; on mechanism: key: NCPC: non-competitive inhibition with positive cooperativity; SLNC: simple linear non-competitive inhibition
Protocol: as §1

rH84Y [6] = molecular target: rH84Y (Leishmania mexicana, UniProt P36400, D186N/D189S/H209Y/N185D, form not given); assay: Enzyme kinetics and mechanism of inhibition of rH84Y; format: biochemical; on mechanism: key: NCPC: non-competitive inhibition with positive cooperativity; SLNC: simple linear non-competitive inhibition
Protocol: as §1

[7] = L. amazonensis promastigotes, 26 °C, MTT, highest concentration tested 10 µg/mL
[8] = factor of formation of the ESI complex

T1 sequence (P36400 126-343): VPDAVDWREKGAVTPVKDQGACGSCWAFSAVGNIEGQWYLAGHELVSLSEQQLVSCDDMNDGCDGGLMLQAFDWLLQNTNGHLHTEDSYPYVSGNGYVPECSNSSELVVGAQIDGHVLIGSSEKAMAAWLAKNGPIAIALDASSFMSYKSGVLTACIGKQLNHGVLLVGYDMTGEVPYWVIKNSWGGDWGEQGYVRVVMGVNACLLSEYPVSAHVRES
Chain of rH84Y (Leishmania mexicana, UniProt P36400, D186N/D189S/H209Y/N185D, form not given) (P36400 126-343 D186N/D189S/H209Y/N185D): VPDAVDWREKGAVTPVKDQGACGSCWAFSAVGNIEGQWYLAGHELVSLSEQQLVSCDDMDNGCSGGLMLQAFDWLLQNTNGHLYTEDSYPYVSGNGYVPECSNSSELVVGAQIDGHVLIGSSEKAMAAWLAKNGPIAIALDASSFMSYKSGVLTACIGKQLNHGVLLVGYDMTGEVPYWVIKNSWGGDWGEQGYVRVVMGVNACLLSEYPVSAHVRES
Chain of rCPB3 (P36400 126-343 D186N/D189S/N185D): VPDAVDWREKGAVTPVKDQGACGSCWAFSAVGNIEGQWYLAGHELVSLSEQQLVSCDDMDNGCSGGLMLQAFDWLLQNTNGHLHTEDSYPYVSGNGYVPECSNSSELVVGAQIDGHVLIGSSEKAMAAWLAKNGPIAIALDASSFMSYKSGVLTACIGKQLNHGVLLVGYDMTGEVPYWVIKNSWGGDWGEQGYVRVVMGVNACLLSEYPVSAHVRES

SMILES	IC50 (rCPB2.8 [1])	SI (selectivity index) [3]	IC50 [3, 7]	NIH/3T3 Cells GL50 (NIH/3T3 fibroblasts)	inhibition at 1 µM (rCPB2.8 [4])	IC50 [3]	inhibition at 5 µM (rCPB2.8 [4])	further results
CN(C)c1ccc(/C=C/C(=O)c2cc(F)ccc2O)cc1 [Compound 4c, (E)-3-(4-(dimethylamino)phenyl)-1-(5-fluoro-2-hydroxyphenyl)prop-2-en-1-one]	9.88 ± 0.73 µM	>1752.48	0.5 µM	>876.24 µM	–	–	–	Times more potent in inhibiting rH84Y compared to rCPB3 (rH84Y [2]): 8.74 times; Cytotoxicity against mammal cells (in words) (NIH/3T3 fibroblasts; NIH/3T3 cells): noncytotoxic
COc1ccc(/C=C/C(=O)c2ccc(Cl)cc2)cc1 [Compound 1a, (E)-1-(4-chlorophenyl)-3-(4-methoxyphenyl)prop-2-en-1-one]	13.7 ± 0.74 µM	–	–	294.13 µM	82%	> 10 µg/mL	–	–
O=c1c(O)c(-c2ccc3c(c2)OCO3)oc2ccccc12 [Compound f12b, 2-(benzo[d][1, 3]dioxol-5-yl)-3-hydroxy-4H-chromen-4-one]	5.23 ± 0.32 µM	–	> 10 µg/mL	>885.74 µM	69.2%	–	77.5%	Mechanism (rCPB2.8 [5]): NCPC; αKi (rCPB2.8 [5]): 24.9 ± 2.3 µM; Ki (rCPB2.8 [5]; Ki): 39.2 ± 4.1 µM; α (rCPB2.8 [5]; [8]): 0.634; β (rCPB2.8 [5]; factor of formation of the IEI complex): 0.029; γ (rCPB2.8 [5]; factor of formation of the IESI complex): 0.013; Ki (rCPB2.8 [5]; βKi): 1.17 ± 0.12 µM; Ki (rCPB2.8 [5]; γKi): 0.51 ± 0.09 µM; Mechanism (rCPB3): SLNC; αKi (rCPB3): 13.7 ± 1.2 µM; α (rCPB3; [8]): 1; Mechanism (rH84Y [6]): SLNC; αKi (rH84Y [6]): 6.06 ± 0.24 µM; α (rH84Y [6]; [8]): 1
CN(C)c1ccc(/C=C/C(=O)c2ccccc2O)cc1 [Compound 2c, (E)-3-(4-(dimethylamino)phenyl)-1-(2-hydroxyphenyl)prop-2-en-1-one]	11.7 ± 0.38 µM	–	–	>935.21 µM	–	> 10 µg/mL	25.6%	rCPB2.8 activity (increased to) (rCPB2.8 [4]; 1 µM compound, activity relative to control): 141.71%
CN(C)c1ccc(/C=C/C(=O)c2ccc(Cl)cc2)cc1 [Compound 1c, (E)-1-(4-chlorophenyl)-3-(4-(dimethylamino)phenyl)prop-2-en-1-one]	2.75 ± 0.18 µM	>767.39	1.14 µM	>874.83 µM	–	–	91.6%	–
